In publication PMC9820303, “^αN-Acetyl β-Endorphin Is an Endogenous Ligand of σ1Rs That Regulates Mu-Opioid Receptor Signaling by Exchanging G Proteins for σ2Rs in σ1R Oligomers” (International Journal of Molecular Sciences, 2022):

System: CD1 mice (wild-type and σ1R−/−)
Test: Supraspinal analgesia, warm water (52 °C) tail-flick test
Assay type: in vivo, mouse
Conditions: for effect of C-terminal peptides on β-End 1–31 and morphine analgesia: icv 20 min before 0.5 nmol β-End 1–31 or 10 nmol morphine icv; for effect of exogenous σ1R ligands on β-End 1–31 analgesia: 3 nmol icv 20 min before 0.5 nmol β-End 1–31 icv; for effect on DAMGO analgesia: icv 20 min before DAMGO (0.1 nmol icv), evaluated 15 min after DAMGO; for effect on analgesia of the DOR agonists DPDPE and D-Ala^2 Deltorphin II: icv 20 min before DPDPE (10 nmol) or D-Ala2-deltorphin II (10 nmol) icv; for effect on β-End 1–31 analgesia, nonphysiological fragments: 1 nmol icv 20 min before 0.5 nmol β-End 1–31 icv, 6 mice
Protocol: Upper panel: the withdrawal thresholds of the contralateral and ipsilateral paws were measured before (indicated as 0) and up to 14 days after surgery. […] Middle panel: 0.3 and 3 nmol of ^αN-acetyl β-End 1–31 were administered icv 7 days after surgery, and the nociceptive threshold was evaluated at the indicated postinjection intervals (in minutes). For every time interval studied in min or days, * indicates a significant difference from the group that received saline instead of ^αN-acetyl β-End 1–31; ϕ significant difference from the effect of 3 nmol ^αN-acetyl β-End 1–31. […] All data are presented as the mean ± SD of six mice. ANOVA followed by the Holm–Sidak multiple comparisons test, p < 0.05, 1-β > 0.80. […] Upper panel: wild-type mice were injected icv with saline, ^αN-acetyl β-End 1–31 (1 nmol/mouse) or the combination of the σ1R agonist PPCC (3 nmol/mouse) plus ^αN-acetyl β-End 1–31 20 min before morphine and β-End 1–31. Analgesia was evaluated by the warm water (52 °C) tail-flick test at the interval postinjection corresponding to their peak effect, 30 min. Lower panel: σ1R^−/− mice received 1 nmol ^αN-acetyl β-End 1–31, 20 min before morphine and β-End 1–31 and analgesia was evaluated as described above. Eight mice were used per strain and treatment. * Significant difference with respect to the group treated with morphine or β-End 1–31 alone. ANOVA followed by the Holm–Sidak multiple comparisons test, p < 0.05, 1-β > 0.80.
Figure 3 Effect of physiological β-End 1–31 derivatives on morphine and β-End 1–31 analgesia. […] (A) The mice were icv-injected with 25 nmol of β-End 1–26, β-End 1–27 and ^αN-acetylated derivatives 20 min before icv 0.5 nmol β-End 1–31. Analgesia was determined at the indicated postinjection intervals. (B) CD1 wild-type and σ1R^−/− mice were administered C terminal peptide sequences 27–31, 28–31 and 30–31 of β-End 1–31 through an icv injection 20 min before 0.5 nmol of the whole β-End 1–31 and morphine (10 nmols) were injected icv. […] (C) A series of exogenous σ1R ligands (3 nmol) were icv-injected 20 min before 0.5 nmol β-End 1–31 was administered via icv in wild-type mice. The σ1R antagonist S1RA was also icv-injected before β-End 1–31 was administered icv in σ1R^−/− mice. (D) The effects of several doses of S1RA on morphine analgesia were studied in wild-type and σ1R^−/− mice. […] ANOVA followed by the Holm–Sidak multiple comparisons test, p < 0.05, 1-β > 0.80.
(A) The effect of σ1R deletion on opioid- and cannabinoid-induced analgesia. Analgesic compounds were icv-injected into wild-type and σ1R^−/− mice, and analgesia was evaluated 30 min after morphine (3 nmol) and β-End 1–31 (0.5 nmol), 15 min after DAMGO (0.1 nmol) and DPDPE (10 nmol) and 10 min after WIN55,212-2 (15 nmol). The bars are the mean ± SD of eight mice per strain and treatment. * Significant difference with respect to the effect of the analgesic substance in the wild-type group. ANOVA followed by the Holm–Sidak multiple comparisons test, p < 0.05, 1-β > 0.80. (B) Coprecipitation of G proteins with MORs. Solubilized mouse brain cortical membranes enriched in synaptosomes (SBM) from CD1 wild-type (WT) and σ1R^−/− mice were solubilized with sonication in the presence of 1% NP-40. Non-soluble debris was eliminated, and the samples were then incubated overnight at 4 °C with affinity-purified biotinylated IgGs that were raised against extracellular regions of the MOR. Protein complexes that were immunoprecipitated with streptavidin agarose were extensively washed and then resolved by SDS-PAGE.

YKKGE [β-End 27–31, C-terminal pentapeptide of β-End 1–31]
effect of C-terminal peptides on β-End 1–31 and morphine analgesia (wild-type mice): reduced the analgesic activity of β-End 1–31 and morphine

COC(=O)[C@]1(c2ccc(C)cc2)C[C@@H]1CN1CCC(O)(c2ccccc2)CC1 [PPCC, (1R,2S/1S,2R)-2-[4-hydroxy-4-phenylpiperidin-1-yl)methyl]-1-(4-methylphenyl) cyclopropanecarboxylate, reference compound]
effect of exogenous σ1R ligands on β-End 1–31 analgesia (wild-type mice): did not alter the effect of β-End 1–31 | effect on the antagonist activity of β-End C-terminal peptides (PPCC 3 nmol icv 10 min before the β-End C-terminal peptides): prevented | effect on the impairment of morphine and β-End 1–31 analgesia by ^αN-acetyl β-End 1–31 (PPCC 3 nmol/mouse icv plus ^αN-acetyl β-End 1–31, wild-type mice): prevented the impairing effects

Cl.O=C(OCCN1CCOCC1)C1(c2ccccc2)CCCCC1 [PRE084, 2-(4-morpholinethyl)-1-phenylcyclohexanecarboxylate hydrochloride, reference compound]
effect of exogenous σ1R ligands on β-End 1–31 analgesia (wild-type mice): did not alter the effect of β-End 1–31

^αN-acetyl β-End 1–31: β-End 1–31 acetylated at N terminal Y1, α position
effect on morphine and β-End 1–31 analgesic potency, 1 pmol (1 pmol icv 30 min before morphine and β-End 1–31, wild-type mice): significant reductions in their analgesic potency | effect on DAMGO analgesia: enhanced DAMGO analgesia | effect on analgesia of the DOR agonists DPDPE and D-Ala^2 Deltorphin II: neither ^αN-acetyl β-End 1–31 nor S1RA altered the analgesic effects | icv dose at which the regulatory effects on analgesia reached a maximum (icv, persisted at 1 pmol or 1 nmol): 1 to 10 fmols | effect on DAMGO and clonidine analgesia (increasing icv doses 20 min before DAMGO (0.1 nmol) or clonidine (150 nmol) icv, wild-type mice): increased | effect on morphine and β-End 1–31 analgesia in σ1R−/− mice (σ1R−/− mice, icv before the opioids): not altered

KKGE [β-End 28–31, C-terminal tetrapeptide of β-End 1–31]
effect of C-terminal peptides on β-End 1–31 and morphine analgesia (wild-type mice): reduced the analgesic activity of β-End 1–31 and morphine

β-End 6–31: β-End 1–31 lacking the N-terminal met-enkephalin 1–5 sequence (TSEKSQTPLVTLFKNAIIKNAYKKGE; Beta-endorphin; UniProt P01189 242-267, looked up, fragment)
effect on β-End 1–31 analgesia, nonphysiological fragments: not produced

Cc1cc(OCCN2CCOCC2)nn1-c1ccc2ccccc2c1 [S1RA]
effect of exogenous σ1R ligands on β-End 1–31 analgesia (wild-type mice): diminished | effect on morphine analgesia, 3 nmol (3 nmol icv, wild-type mice): produced the maximum increase | effect on morphine analgesia, 10 nmol (10 nmol icv, wild-type mice): barely altered morphine effects | effect on DAMGO analgesia: enhanced DAMGO analgesia | effect on analgesia of the DOR agonists DPDPE and D-Ala^2 Deltorphin II: neither ^αN-acetyl β-End 1–31 nor S1RA altered the analgesic effects | effect on morphine analgesia (icv before morphine, wild-type mice): enhanced morphine analgesia

β-End 22–31: nonphysiological C-terminal sequence of β-End 1–31 (IIKNAYKKGE; Beta-endorphin; UniProt P01189 258-267, looked up, fragment)
effect on β-End 1–31 analgesia, nonphysiological fragments: reduced β-End 1–31 analgesia

Br.Br.CN(C)CCN(C)CCc1ccc(Cl)c(Cl)c1 [BD1047, N′-[2-(3,4-dichlorophenyl)ethyl]-N,N,N′-trimethylethane-1,2-diamine;dihydrobromide, reference compound]
effect of exogenous σ1R ligands on β-End 1–31 analgesia (wild-type mice): diminished
